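Briefly, cells in 96-well plates were exposed to five compound concentrations for 48 h, and endpoints were estimated by linear interpolation. Here, GI50 denotes the concentration required for 50% inhibition of growth. TGI is the concentration that stops growth completely.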

Test systems include CAKI-1 renal; COLO 205 colon; HOP-92 NSCLC; IGROV1 ovarian; MALME-3M melanoma; NCI-H460 lung; OVCAR-8 ovarian; SK-MEL-2 melanoma; SN12C renal; TK-10 renal.
What all share (test): growth of human tumour cells (NCI), 48 h

For `COc1ccc(-c2c(C#N)c(N)nc3c2CCCc2ccc(F)cc2-3)cc1OC`, the GI50 with CAKI-1 renal was 24.1 nM; in the test with COLO 205 colon, 4890 nM; in the test with HOP-92 NSCLC, 4730 nM; with IGROV1 ovarian it was 131 nM; in the test with MALME-3M melanoma it was under 10 nM; in the test on NCI-H460 lung, 16.3 nM. For the same compound, the GI50 was 419 nM in the test on OVCAR-8 ovarian, under 10 nM in the test with SK-MEL-2 melanoma, under 49.9 nM in the test with SN12C renal and under 16.3 nM in the test on TK-10 renal. The TGI is 35100 nM with CAKI-1 renal; over 38100 nM with COLO 205 colon; over 100000 nM in the test with HOP-92 NSCLC; over 100000 nM in the test on IGROV1 ovarian; over 52600 nM in the test on NCI-H460 lung; over 100000 nM with OVCAR-8 ovarian. In addition, the values for the TGI with SK-MEL-2 melanoma, in the test on SN12C renal and with TK-10 renal were over 100000 nM, 4750 nM and 1700 nM, respectively.
Regarding `Oc1ccc(-c2nc3ccc4[nH]ncc4c3c3c2CCCC3)c2cccnc12`, the GI50 in the test with CAKI-1 renal was 120 nM; with COLO 205 colon it was 890 nM; in the test with HOP-92 NSCLC it was 110 nM; in the test on IGROV1 ovarian, 196 nM; in the test with MALME-3M melanoma it was 523 nM; with NCI-H460 lung, 122 nM. Also, the GI50 with OVCAR-8 ovarian was 148 nM; with SK-MEL-2 melanoma, 452 nM; in the test with SN12C renal it was 206 nM; in the test with TK-10 renal it was 496 nM. The TGI was found to be 886 nM in the test on CAKI-1 renal; 2420 nM with COLO 205 colon; 794 nM in the test with HOP-92 NSCLC; 4060 nM in the test on IGROV1 ovarian; 2610 nM in the test with MALME-3M melanoma; 863 nM in the test on NCI-H460 lung. Besides, the TGI in the test on OVCAR-8 ovarian was 10800 nM; in the test with SK-MEL-2 melanoma, 3500 nM; in the test on SN12C renal, 6790 nM; in the test with TK-10 renal it was 7010 nM.
On to `COC(=O)[C@H](Cc1ccccc1)NC(=O)[C@@H](OC)[C@@H]1Cc2cc3cc(OC4CC(OC5CC(O)C(O)C(C)O5)C(O)C(C)O4)c(C)c(O)c3c(O)c2C(=O)[C@H]1OC1CC(OC2CC(OC3CC(C)(O)C(O)C(C)O3)C(O)C(C)O2)C(O)C(C)O1` (some centres undefined), for which the GI50 in the test on CAKI-1 renal was 41.6 nM; in the test on COLO 205 colon, 18.2 nM; in the test on HOP-92 NSCLC it was 4.51 nM; in the test on IGROV1 ovarian, 9.02 nM; in the test with MALME-3M melanoma it was 6.93 nM; with NCI-H460 lung it was 19.7 nM. The GI50 with OVCAR-8 ovarian was 10.8 nM; in the test with SK-MEL-2 melanoma it was 17.3 nM; in the test with SN12C renal it was 9.91 nM; in the test on TK-10 renal, 43.9 nM. Moreover, the TGI is over 14300 nM in the test on CAKI-1 renal; 68.2 nM with COLO 205 colon; 202 nM with HOP-92 NSCLC; over 14300 nM in the test on IGROV1 ovarian; 28.7 nM with MALME-3M melanoma; over 14300 nM in the test on NCI-H460 lung. For the same compound, the TGI in the test with OVCAR-8 ovarian is over 14300 nM; in the test with SK-MEL-2 melanoma, 70.7 nM; in the test on SN12C renal, over 14300 nM; with TK-10 renal, over 14300 nM.

These data come from PubChem BioAssay (NCI).
